Measured values taken from ChEMBL document CHEMBL4673215, “Discovery of DS42450411 as a potent orally active hepcidin production inhibitor: Design and optimization of novel 4-aminopyrimidine derivatives” (Bioorg Med Chem Lett, 2018).
pIC50: −log10 of the molar value. The source made the active and inactive calls. The rule behind the calls is not given here.

Key:
[1] = Inhibition of BMP6-stimulated hepcidin production in human HepG2 cells
[2] = biological target: Dual specificity tyrosine-phosphorylation-regulated kinase 1A (Homo sapiens, UniProt Q13627); assay: Inhibition of DYRK1a (unknown origin)
[3] = Lipophilicity, logD of the compound; type: physicochemical; details: octanol/water
[4] = Protein binding in plasma (unknown origin) assessed as unbound fraction; type: ADME, cell-free
[5] = biological target: T1, Activin receptor type-1 (Homo sapiens) (UniProt Q04771); assay: Inhibition of ALK2 (unknown origin) at 30 uM
T1 sequence (whole entry): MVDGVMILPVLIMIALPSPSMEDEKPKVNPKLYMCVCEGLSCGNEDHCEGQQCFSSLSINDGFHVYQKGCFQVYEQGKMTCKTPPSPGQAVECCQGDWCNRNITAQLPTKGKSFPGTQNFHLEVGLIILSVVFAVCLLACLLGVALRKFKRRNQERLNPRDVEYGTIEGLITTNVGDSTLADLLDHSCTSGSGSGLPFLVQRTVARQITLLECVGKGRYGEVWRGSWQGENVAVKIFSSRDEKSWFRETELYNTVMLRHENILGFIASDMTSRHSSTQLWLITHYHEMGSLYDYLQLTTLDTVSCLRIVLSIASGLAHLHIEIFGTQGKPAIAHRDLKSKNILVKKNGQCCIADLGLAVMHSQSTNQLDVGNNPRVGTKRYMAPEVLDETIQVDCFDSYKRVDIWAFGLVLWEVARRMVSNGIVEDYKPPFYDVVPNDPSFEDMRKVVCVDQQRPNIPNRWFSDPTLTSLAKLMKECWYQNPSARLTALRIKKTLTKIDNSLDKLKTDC

Mus musculus = assay: Inhibition of IL6-induced hepcidin production in C57BL/6J mouse serum at 30 mg/kg, po administered 30 mins prior to IL6 challenge and measured after 4 hrs; type: functional, organism-based; details: time 270.0 min
[6] = AUC in C57BL/6J mouse at 30 mg/kg, po; type: ADME, organism-based; set-up: dose 30 mg/kg; details: in vivo
[7] = Half life in C57BL/6J mouse at 30 mg/kg, po; type: ADME, organism-based; details: in vivo
[8] = Cmax in C57BL/6J mouse at 30 mg/kg, po; type: ADME, organism-based; set-up: route oral, dose 30 mg/kg; details: in vivo
[9] = Clearance in C57BL/6J mouse at 30 mg/kg, po; type: ADME, organism-based; details: in vivo
[10] = Tmax in C57BL/6J mouse at 30 mg/kg, po; type: ADME, organism-based; details: in vivo
[11] = biological target: Dual specificity tyrosine-phosphorylation-regulated kinase 1B (Homo sapiens) (UniProt Q9Y463); assay: Inhibition of DYRK1b (unknown origin) at 0.5 uM
[12] = biological target: Dual specificity protein kinase CLK2 (Homo sapiens) (UniProt P49760); assay: Inhibition of CLK2 (unknown origin) at 0.5 uM
Chain of Dual specificity protein kinase CLK2 (Homo sapiens) (P49760 whole entry, looked up): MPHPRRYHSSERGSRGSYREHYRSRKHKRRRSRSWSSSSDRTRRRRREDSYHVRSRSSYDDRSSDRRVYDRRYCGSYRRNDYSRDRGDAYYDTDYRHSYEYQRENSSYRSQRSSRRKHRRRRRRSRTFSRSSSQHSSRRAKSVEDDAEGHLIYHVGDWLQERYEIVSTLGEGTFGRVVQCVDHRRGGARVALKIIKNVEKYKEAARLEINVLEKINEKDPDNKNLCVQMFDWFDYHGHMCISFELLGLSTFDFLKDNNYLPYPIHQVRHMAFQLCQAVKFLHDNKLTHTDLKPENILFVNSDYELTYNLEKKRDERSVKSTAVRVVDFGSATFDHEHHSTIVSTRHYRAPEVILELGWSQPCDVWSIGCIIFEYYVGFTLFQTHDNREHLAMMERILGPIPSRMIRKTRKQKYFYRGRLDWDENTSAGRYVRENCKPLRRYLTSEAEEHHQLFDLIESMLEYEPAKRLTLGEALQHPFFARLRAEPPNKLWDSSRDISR

Chain of Dual specificity tyrosine-phosphorylation-regulated kinase 1B (Homo sapiens) (Q9Y463 whole entry, looked up): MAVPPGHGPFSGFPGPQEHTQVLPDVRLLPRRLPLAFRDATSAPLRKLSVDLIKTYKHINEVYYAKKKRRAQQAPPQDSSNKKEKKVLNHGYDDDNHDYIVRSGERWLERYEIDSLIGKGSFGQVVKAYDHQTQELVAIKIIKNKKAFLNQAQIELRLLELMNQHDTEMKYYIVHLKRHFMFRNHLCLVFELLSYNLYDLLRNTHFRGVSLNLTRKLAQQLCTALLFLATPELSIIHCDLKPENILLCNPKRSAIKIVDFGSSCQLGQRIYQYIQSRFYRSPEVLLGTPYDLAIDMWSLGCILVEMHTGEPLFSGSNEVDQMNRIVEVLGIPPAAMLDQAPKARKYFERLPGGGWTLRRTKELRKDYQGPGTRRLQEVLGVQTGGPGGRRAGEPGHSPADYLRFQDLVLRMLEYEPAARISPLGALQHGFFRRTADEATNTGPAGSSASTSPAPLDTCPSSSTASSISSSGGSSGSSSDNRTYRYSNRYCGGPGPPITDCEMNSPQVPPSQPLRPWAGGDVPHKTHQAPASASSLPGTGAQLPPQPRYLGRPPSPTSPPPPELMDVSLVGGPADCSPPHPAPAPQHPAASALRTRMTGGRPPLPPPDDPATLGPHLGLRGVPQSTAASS

Structure (SMILES) | pIC50 [1] | also measured
COc1ccc2c(c1)CC(C)(C)c1c(N)nc(C)nc1-2 | < 5.30 | –
Cc1cccc2c1CC(C)(C)c1c(N)ncnc1-2 | 5.30 | –
c1ccc2c(c1)CC1(CCCC1)c1cncnc1-2 | < 4.52 | –
CNc1ncnc2c1C1(CCCC1)Cc1ccccc1-2 | < 4.52 | –
CC(C)Oc1ccc2c(c1)CC(C)(C)c1c(N)ncnc1-2 | 6.31 | –
CC1(C)Cc2cc(C3CCNCC3)ccc2-c2ncnc(N)c21 | 6.09 | –
COC(=O)c1ccc2c(c1)CC(C)(C)c1c(N)ncnc1-2 | 4.96 | –
Nc1ncnc2c1CCc1ccccc1-2 | < 4.52 | pIC50 [2]: 4.24
CC1(C)Cc2cc(OCC(=O)O)ccc2-c2ncnc(N)c21 | 4.96 | –
Cc1ccc2c(c1)-c1ncnc(N)c1C(C)(C)C2 | 5.55 | –
CC1(C)Cc2cc(-c3ccccc3)ccc2-c2ncnc(N)c21 | 5.82 | –
Oc1ncnc2c1C1(CCCC1)Cc1ccccc1-2 | < 4.52 | –
Cc1cccc2c1-c1ncnc(N)c1C(C)(C)C2 | 5.33 | –
Cc1ccc2c(c1)CC(C)(C)c1c(N)ncnc1-2 | 6.22 | –
COc1ccc2c(c1)CC(C)(C)c1c-2noc1N | < 4.52 | –
COc1ccc2c(c1)CC(C)(C)c1c(N)ncnc1-2 | 6.28 | inhibition [11]: Active; inhibition [12]: Active
Nc1ncnc2c1C1(CCCC1)Cc1ccccc1-2 | 5.38 | –
CC1(C)Cc2cc(OCCO)ccc2-c2ncnc(N)c21 | 5.96 | –
CC(=O)N1CCC(Oc2ccc3c(c2)CC(C)(C)c2c(N)ncnc2-3)CC1 | 6.12 | –
COc1ccc2c(c1)CC(C)(C)c1c(N)n[nH]c1-2 | < 4.52 | –
CN(C)c1ncnc2c1C1(CCCC1)Cc1ccccc1-2 | < 4.52 | –
CC1(C)Cc2ccccc2-c2ncnc(N)c21 | 5.35 | –

Molecules with a higher pIC50 [1], results first:

pIC50 [1] | Structure (SMILES) | also measured
6.96 | C=C(c1ccc2c(c1)CC(C)(C)c1c(N)ncnc1-2)[C@H]1CC[C@H](N(C)C)CC1 | –
6.92 | C=C(c1ccc2c(c1)CC(C)(C)c1c(N)ncnc1-2)C12CC(C1)C2 | –
6.62 | CC1(C)Cc2cc(OC3CCCNCC3)ccc2-c2ncnc(N)c21 (configuration not stated) | –
6.64 | CC1(C)Cc2cc(OC3CCNCC3)ccc2-c2ncnc(N)c21 | –
6.52 | CC1(C)Cc2cc(C(=O)C3CCNCC3)ccc2-c2ncnc(N)c21 | –
7.51 | C=C(c1ccc2c(c1)CC(C)(C)c1c(N)ncnc1-2)[C@H]1C[C@H](N)C1 | –
7.14 | CC(c1ccc2c(c1)CC(C)(C)c1c(N)ncnc1-2)C1CCNCC1 (racemic) | –
6.74 | CC1(C)Cc2cc(OC3CCNC3)ccc2-c2ncnc(N)c21 (configuration not stated) | –
7.49 | C=C(c1ccc2c(c1)CC(C)(C)c1c(N)ncnc1-2)[C@H]1CC[C@H](N)CC1 | logD [3]: 1.6; fraction unbound [4]: 0.065; inhibition [5]: inactive; inhibition (Mus musculus): Active; AUC [6]: 2580 ng·h/mL; half-life [7]: 4.59 h; Cmax [8]: 610 ng/mL; CL/F [9]: 191 mL/min/kg; Tmax [10]: 1.17 h
7.38 | C=C(c1ccc2c(c1)CC(C)(C)c1c(N)ncnc1-2)[C@H]1CCC[C@H](N)C1 | –
7.35 | C=C(c1ccc2c(c1)CC(C)(C)c1c(N)ncnc1-2)[C@H]1CC[C@H](NC)CC1 | –
7.68 | C=C(c1ccc2c(c1)CC(C)(C)c1c(N)ncnc1-2)C1CCNCC1 | –
6.38 | CCOc1ccc2c(c1)CC(C)(C)c1c(N)ncnc1-2 | –
